SMILES strings stand for the structures.

Data set [1] deals with Rutgers A strain house flies. The data set can be described thus: topical application, percent kill after 24 hours, resistant Rutgers A strain. The class given is in vivo, female). Conditions: for percent kill after 24 hours, with GS 13005: GS 13005 1.0 + synergist 5.0 μg/fly. In outline: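 Synergist plus mobam, Diazinon or GS 13005 dissolved in acetone, applied as 1.0 μl to the thorax of CO2-anaesthetised 3-to-5 day old female Rutgers A (resistant) house flies; doses in μg/fly. Flies held 10 per dish, 3-5 dishes per treatment, with skim milk; mortality scored at 24 h.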

A further data set has as its system male mice. The data set can be described thus: extension of sleeping time of depressant drugs by synergists. The class given is in vivo, male mice (Swiss albino white). Conditions: for Mean Sleeping Time, Noludar / Relative Sleeping Time, Noludar: Noludar 110 mg/kg; for Relative Sleeping Time, Noludar / Relative Sleeping Time, Secobarbital: treated/control; for Mean Sleeping Time, Secobarbital / Relative Sleeping Time, Secobarbital: Secobarbital 37 mg/kg. Summed up:
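Swiss albino male mice (~38 days, 25-30 g) given synergist at 74.0 or 110.0 mg/kg in corn oil 1 h before Secobarbital 37.0 mg/kg or Noludar 110.0 mg/kg in water. Sleeping time measured from drug dosing to righting-reflex recovery; relative sleeping time = treated ÷ drug-only control.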

The subject of data set [2] is IN/WHO strain house flies. The data set can be described thus: topical application, percent kill after 24 hours, susceptible IN/WHO strain. The class given is in vivo, female). Conditions: for percent kill after 24 hours, synergist alone: insecticide 0, synergist 1 μg/fly. Summed up:
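Insecticide plus synergist in acetone, 1.0 μl applied to the thorax of CO2-anesthetized 3-to-5-day-old female IN/WHO house flies, doses in μg/fly. Flies held 10 per dish, 3-5 dishes per treatment, with skim milk. Percent mortality scored after 24 h.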

The mark [3] stands for this setting: Diazinon 1.0 + synergist 3.0 μg/fly.
Setting [4] is: Diazinon 3.0 + synergist 3.0 μg/fly.
Where [5] appears, read: Mobam 0.30 + synergist 1.5 μg/fly.
The mark [6] stands for this setting: insecticide 0, synergist 5.0 μg/fly.
Setting [7] is: synergist 110 mg/kg one hour prior.
[8] abbreviates: synergist 74 mg/kg one hour prior.
The mark [9] stands for this setting: Diazinon 0.03 + synergist 0.15 μg/fly.
Where [10] appears, read: GS 13005 0.10 + synergist 0.50 μg/fly.
Where [11] appears, read: Mobam 0.05 + synergist 0.25 μg/fly.
Where [12] appears, read: Mobam 0.10 + synergist 0.50 μg/fly.
Setting [13] is: Mobam 0.20 + synergist 1 μg/fly.
[14] abbreviates: Diazinon 1.5 + synergist 7.5 μg/fly.
Setting [15] is: Mobam 0.60 + synergist 3.0 μg/fly.
The mark [16] stands for this setting: insecticide 0, synergist 7.5 μg/fly.
Setting [17] is: Diazinon 3.0 + synergist 15 μg/fly.
Setting [18] is: insecticide 0, synergist 15 μg/fly.
Where [19] appears, read: Mobam 0.13 μg/fly, synergist/insecticide 0.5/1.
[20] abbreviates: Mobam 0.13 μg/fly, synergist/insecticide 1/1.
Where [21] appears, read: Mobam 0.13 μg/fly, synergist/insecticide 5/1.
Where [22] appears, read: Mobam 0.25 μg/fly, synergist/insecticide 0.5/1.
Where [23] appears, read: Mobam 0.25 μg/fly, synergist/insecticide 1/1.
Where [24] appears, read: Mobam 0.25 μg/fly, synergist/insecticide 2/1.
[25] abbreviates: Mobam 0.25 μg/fly, synergist/insecticide 5/1.
Setting [26] is: Mobam 0.50 μg/fly, synergist/insecticide 0.5/1.
[27] abbreviates: Mobam 0.50 μg/fly, synergist/insecticide 1/1.
The mark [28] stands for this setting: Mobam 0.50 μg/fly, synergist/insecticide 2/1.
Setting [29] is: Mobam 0.50 μg/fly, synergist/insecticide 5/1.
Where [30] appears, read: Mobam 1.0 μg/fly, synergist/insecticide 0.5/1.
The mark [31] stands for this setting: Mobam 1.0 μg/fly, synergist/insecticide 1/1.
The mark [32] stands for this setting: Mobam 1.0 μg/fly, synergist/insecticide 2/1.
The mark [33] stands for this setting: Mobam 1.0 μg/fly, synergist/insecticide 5/1.

On to `C#CCON=Cc1cccc([N+](=O)[O-])c1` [I-B], for which the “percent kill after 24 hours, with Diazinon” value (“percent kill … with Diazinon” for short) in data set [1] (setting [3]) is listed as 5%; in data set [1] (setting [4]), 90%; in data set [2] (setting [9]), 22%. Also, the “percent kill after 24 hours, with GS 13005” value in data set [1] was 100%; in data set [2] (GS 13005 0.05 + synergist 0.25 μg/fly) it was 2%; in data set [2] (GS 13005 0.10 + synergist 0.125 μg/fly), 13%; in data set [2] (GS 13005 0.10 + synergist 0.25 μg/fly), 27%; in data set [2] (setting [10]) it was 73%. Also, the “percent kill after 24 hours, with Mobam” value came to 40% in data set [1] (setting [5]); 0% in data set [2] (setting [11]); 0% in data set [2] (setting [12]); 13% in data set [2] (Mobam 0.20 + synergist 0.25 μg/fly); 30% in data set [2] (Mobam 0.20 + synergist 0.50 μg/fly); 73% in data set [2] (setting [13]). In addition, the “percent kill after 24 hours, synergist alone” value (“percent kill … synergist alone” for short) in data set [1] (setting [6]) and in data set [2] was 0% in each case. Also, the “Mean Sleeping Time, Noludar” value with male mice (setting [7]) came out at 70 min. Also, the “Relative Sleeping Time, Noludar” value with male mice (synergist 110 mg/kg) is reported as 2.4. Further, the “Mean Sleeping Time, Secobarbital” value was 54 min in the data set on male mice (setting [8]) and 106 min in the data set on male mice (setting [7]). Further, the “Relative Sleeping Time, Secobarbital” value with male mice (synergist 74 mg/kg) amounted to 1.5; in the data set on male mice (synergist 110 mg/kg), 1.7.

As to `C#CCON=C(C)c1ccc(Cl)cc1` [I-D], the “percent kill … with Diazinon” value in data set [1] (setting [14]) amounted to 69%; in data set [2] (setting [9]) it was 50%. For the same molecule, the “percent kill after 24 hours, with Mobam” value in data set [1] (Mobam 0.15 + synergist 0.75 μg/fly) is reported as 19%; in data set [1] (setting [5]), 95%; in data set [1] (setting [15]), 100%; in data set [2] (setting [11]) it was 8%; in data set [2] (setting [12]), 20%; in data set [2] (setting [13]), 92%. Further, the “percent kill … synergist alone” value in data set [1] (setting [16]) and in data set [2] was 0% each time. The “Mean Sleeping Time, Noludar” value in the data set with male mice (setting [7]) came to 58 min. The “Relative Sleeping Time, Noludar” value in the data set with male mice (synergist 110 mg/kg) is listed as 1.5. The “Mean Sleeping Time, Secobarbital” value in the data set with male mice (setting [8]) came out at 62 min; with male mice (setting [7]), 56 min. Moreover, the “Relative Sleeping Time, Secobarbital” value with male mice (synergist 74 mg/kg) was determined as 1.9; in the data set on male mice (synergist 110 mg/kg), 1.7.

With `C#CCON=C(C)c1ccc2ccccc2c1` [I-F], the figures for the “percent kill … with Diazinon” value in data set [1] (setting [3]), in data set [1] (setting [4]) and in data set [2] (setting [9]) were 5%, 95% and 24%, respectively. Also, the “percent kill after 24 hours, with GS 13005” value in data set [1] is listed as 95%; in data set [2] (setting [10]) it was 45%. In addition, the results for the “percent kill after 24 hours, with Mobam” value in data set [1] (setting [5]) and in data set [2] (setting [13]) were 38% and 47%, respectively. Further, the “percent kill … synergist alone” value in data set [1] (setting [6]) and in data set [2] was 0% in each case. In the data set with male mice (setting [7]), the “Mean Sleeping Time, Noludar” value turned out to be 55 min. For the same molecule, the “Relative Sleeping Time, Noludar” value in the data set with male mice (synergist 110 mg/kg) was determined as 1.4. For the same molecule, the entries for the “Mean Sleeping Time, Secobarbital” value in the data set on male mice (setting [8]) and with male mice (setting [7]) were 32 min and 70 min, respectively. The “Relative Sleeping Time, Secobarbital” value in the data set with male mice (synergist 74 mg/kg) is given as 1.1; in the data set with male mice (synergist 110 mg/kg), 2.2.

Consider `C#CCON=Cc1ccc(Cl)cc1Cl` [I-G], for which the “percent kill … with Diazinon” value in data set [1] (setting [14]) is reported as 60%; in data set [1] (setting [17]), 100%; in data set [2] (Diazinon 0.02 + synergist 0.10 μg/fly), 40%. Also, the “percent kill … synergist alone” value in data set [1] (setting [16]), in data set [1] (setting [18]) and in data set [2] was 0% in each case. Also, the “Mean Sleeping Time, Noludar” value with male mice (setting [7]) stood at 48 min. Moreover, the “Relative Sleeping Time, Noludar” value with male mice (synergist 110 mg/kg) is on record as 1.2. Moreover, the “Mean Sleeping Time, Secobarbital” value with male mice (setting [8]) stood at 27 min; with male mice (setting [7]) it was 55 min. Besides, the entries for the “Relative Sleeping Time, Secobarbital” value in the data set on male mice (synergist 74 mg/kg) and with male mice (synergist 110 mg/kg) were 1.0 and 1.7, respectively.

Regarding `C#CCON=Cc1cccc2ccccc12` [I-I], the “percent kill … with Diazinon” value in data set [1] (setting [14]) worked out at 0%; in data set [1] (setting [17]), 53%. Further, the “percent kill … synergist alone” value in data set [1] (setting [16]) and in data set [1] (setting [18]) was 0% throughout. In addition, the “Mean Sleeping Time, Noludar” value in the data set on male mice (setting [7]) was 62 min. Besides, the “Relative Sleeping Time, Noludar” value with male mice (synergist 110 mg/kg) was 2.1. In addition, the “Mean Sleeping Time, Secobarbital” value with male mice (setting [8]) was 31 min; in the data set on male mice (setting [7]) it was 102 min. The “Relative Sleeping Time, Secobarbital” value in the data set on male mice (synergist 74 mg/kg) was 1.1; with male mice (synergist 110 mg/kg), 1.7.

Consider `C#CCOCc1ccc(Cl)c(Cl)c1` [II-C], for which the “percent kill after 24 hours, with Mobam” value is on record as 20% in data set [1] (setting [5]); 67% in data set [1] (setting [15]); 4% in data set [2] (setting [11]); 27% in data set [2] (setting [12]); 99% in data set [2] (setting [13]). The “percent kill … synergist alone” value in data set [1] (setting [16]) and in data set [2] was 0% throughout. Also, in the data set on male mice (setting [7]), the “Mean Sleeping Time, Noludar” value came out at 50 min. The “Relative Sleeping Time, Noludar” value in the data set with male mice (synergist 110 mg/kg) came out at 1.3. In addition, the “Mean Sleeping Time, Secobarbital” value in the data set on male mice (setting [7]) stood at 33 min. For the same molecule, in the data set on male mice (synergist 110 mg/kg), the “Relative Sleeping Time, Secobarbital” value is listed as 1.0. For the same molecule, in data set [2] (setting [9]), the “percent kill … with Diazinon” value is 23%.

On to `C#CCOCc1ccc(Cl)c(Cl)c1Cl` [II-D], for which the “percent kill after 24 hours, with Mobam” value in data set [1] (setting [15]) was 92%; in data set [2] (setting [11]) it was 10%; in data set [2] (setting [12]), 50%; in data set [2] (setting [13]), 100%. The “percent kill … synergist alone” value in data set [1] (setting [16]) and in data set [2] was 0% throughout. Moreover, the “Mean Sleeping Time, Noludar” value in the data set on male mice (setting [7]) was 46 min. Besides, the “Relative Sleeping Time, Noludar” value in the data set on male mice (synergist 110 mg/kg) was determined as 1.0. Moreover, the “Mean Sleeping Time, Secobarbital” value in the data set on male mice (setting [7]) was determined as 60 min. Moreover, in the data set with male mice (synergist 110 mg/kg), the “Relative Sleeping Time, Secobarbital” value is on record as 1.2. In data set [2] (setting [9]), the “percent kill … with Diazinon” value is 40%. Besides, the “percent mortality 24 hours, with Mobam” value turned out to be 7% in data set [2] (setting [19]); 17% in data set [2] (setting [20]); 50% in data set [2] (setting [21]); 30% in data set [2] (setting [22]); 63% in data set [2] (setting [23]); 83% in data set [2] (setting [24]). The “percent mortality 24 hours, with Mobam” value is recorded as 97% in data set [2] (setting [25]); 57% in data set [2] (setting [26]); 100% in data set [2] (setting [27]); 97% in data set [2] (setting [28]); 100% in data set [2] (setting [29]); 97% in data set [2] (setting [30]). The “percent mortality 24 hours, with Mobam” value in data set [2] (setting [31]), in data set [2] (setting [32]) and in data set [2] (setting [33]) was 100% each time.

For the molecule `C#CCOCc1cc(Cl)c(Cl)cc1Cl` [II-F], in the data set on male mice (setting [7]), the “Mean Sleeping Time, Noludar” value worked out at 38 min. Further, in the data set on male mice (synergist 110 mg/kg), the “Relative Sleeping Time, Noludar” value came to 1.3. Further, the “Mean Sleeping Time, Secobarbital” value in the data set with male mice (setting [7]) stood at 46 min. In the data set on male mice (synergist 110 mg/kg), the “Relative Sleeping Time, Secobarbital” value is 1.0. In addition, the “percent mortality 24 hours, with Mobam” value is given as 3% in data set [2] (setting [19]); 10% in data set [2] (setting [20]); 0% in data set [2] (Mobam 0.13 μg/fly, synergist/insecticide 2/1); 23% in data set [2] (setting [21]); 33% in data set [2] (setting [22]); 57% in data set [2] (setting [23]). Moreover, the “percent mortality 24 hours, with Mobam” value amounted to 27% in data set [2] (setting [24]); 73% in data set [2] (setting [25]); 70% in data set [2] (setting [26]); 83% in data set [2] (setting [27]); 80% in data set [2] (setting [28]); 97% in data set [2] (setting [29]). In addition, the “percent mortality 24 hours, with Mobam” value came out at 100% in data set [2] (setting [30]), 93% in data set [2] (setting [31]), 93% in data set [2] (setting [32]) and 100% in data set [2] (setting [33]).
